# According to patent US20100216718A1, “Cancer Classification and Methods of Use” (priority 2007, published 2010):
# Legend:
# H1703 xenograft = assay: H1703 mouse xenograft; format: in vivo, NCR nude mice
# Description: We purchased four to six weeks female NCR nude mice from Taconic ande used them to generate H1703 xenograft. We carried out experiments under an IACUC approved protocol. We followed institutional guidelines for the proper and humane use of animals in research. We generated tumors by injecting 10 mice with 5×10^6H1703 cells and reconstituted basement membrane Matrigel (BD Biosciences) with 1:1 ratio in PBS. Drug treatment started when the tumor was about 1 mm×1 mm size. 5 mice were treated with Gleevec at 50 mg/kg/day by oral gavage using a ball ended feeding needle. 5 mice were untreated. […] We measured the average tumor diameter using caliper in both control and treated groups of mice.
# Akt (Ser473) = assay: Western blot of Akt phosphorylation in H1703 cells; format: cell-based, human; details: for phosphorylation of Akt at Ser473: treated for 1 hr, western blot (FIG. 5B)
# Description: (§1) We dissolved drugs (Iressa and Gleevec) in DMSO to yield 10 mM stock solution and stored at −20° C.
# Stat3 = assay: Western analysis with site and phosphorylation-specific antibodies, Stat3; format: cell-based, human; details: H1703 cells, 1 μM for 3 hours, western (FIG. 9E)
# Description: as §1
# PDGFRα = biological target: T1, PDGFRα (Homo sapiens, UniProt P16234); assay: Western blot of PDGFRα phosphorylation in H1703 cells; format: cell-based
# T1 construct: PDGFRα expression is highly restricted to H1703 cell line; endogenous in cells; host or cells: H1703 human NSCLC cell line (ATCC)
# Description: as §1
# A549 cells = details: previous report (Zhang et al. 2003); cited from earlier work
# p44/42MAPK = assay: Western blot of p44/42MAPK phosphorylation in H1703 cells; format: cell-based, human; details: 100 nM Imatinib, 1 hour (FIG. 9B)
# Description: as §1
# SHP2 = assay: Western analysis with site and phosphorylation-specific antibodies, SHP2; format: cell-based, human; details: H1703 cells, 1 μM for 3 hours, western (FIG. 9E)
# Description: as §1
# H1703 cells = assay: Cell growth inhibition assay (MTT/MTS), H1703; format: cell-based, human; details: 72 hr (FIG. 5C)
# Description: Briefly, we seeded 1000 to 5000 cells onto flat-bottomed 96-well plates and grew them in complete medium with 10% FBS. After 24 hours, we changed the cell medium to 100 μl complete growth medium with 10% FBS containing various concentrations of Gleevec, and incubated the cells for an additional 72 hours. We applied each drug concentration to triplicate well of cells. At the end of the incubation, we added 20 μl of CellTiter 96 AQUESOUS One solution to each well, and incubated the plate for 1-4 hours. We read absorbance at 490 nm using a Titan Multiskan Ascent microplate reader (Titertek Instrument). We expressed growth inhibition as mean±SD value of percentage of absorbance reading from treated cells vs untreated cells. We repeated the assay at least three times. We calculated IC50 with the use of OriginPro 6.1 software (OriginLab, Northampton, Mass.).
# PLCγ1 = assay: Western analysis with site and phosphorylation-specific antibodies, PLCγ1; format: cell-based, human; details: H1703 cells, 1 μM for 3 hours, western (FIG. 9E)
# Description: as §1
# [1] = tested on: phosphotyrosine signaling in H1703 cells; assay: SILAC LC-MS/MS phosphotyrosine analysis of H1703 cells; format: cell-based, human; details: 1 μM Gleevec for 3 hours
# Source text: We performed phosphopeptide immunoprecipitation from different cell lines as described previously (Rush, J., Moritz, A., Lee, K. A., Guo, A., Goss, V. L., Spek, E. J., Zhang, H., Zha, X. M., Polakiewicz, R. D., and Comb, M. J. (2005). Immunoaffinity profiling of tyrosine phosphorylation in cancer cells. Nat. Biotechnol. 23, 94-101) using the PhosphoScan Kit (P-Tyr-100) from CST.
# We split equal number of H1703 cells and grew them in either light or heavy SILAC medium (RPMI medium lacking arginine and lysine supplemented with either regular L-Lysine:HCl and L-Arginine:HCL (Sigma) for light medium, or supplemented with L-arginine:HCl (U-13 C6,98%) and L-lysine:2HCl (U-13C6,98%; U-15N2,98%) (Cambridge Isotope Laboratories) for heavy medium. The medium also contained 10% FBS, and penicillin/streptomycin. We grew cells for at least five generations to reach 100 million cells in each medium type. We then treated cells grown in the heavy medium with 1 μM Gleevec for 3 hours. We lysed both treated and control cells in Urea lysis buffer and combined them for phosphopeptide immunoprecipitation experiment as described above.
# We LC-MS analyzed each phosphopeptide sample in duplicate. We packed a fused silica microcapillary column (125 μm×18 cm) with C18 reverse-phase resin (Magic C18AQ, 5 μm particles, 200 Å pore size, Michrom Bioresources, Auburn, Calif.). We loaded samples (4 μL) onto this column with an autosampler (LC Packings Famos, San Francisco, Calif.) and eluted them into the mass spectrometer by a 55-min linear gradient of 7 to 30% acetonitrile in 0.1% formic acid. We delivered the gradient at approximately 600 nl/min using a binary HPLC pump (Agilent 1100, Palo Alto, Calif.) with an in-line flow splitter. We mass analyzed eluting peptide ions with a hybrid linear ion trap-7 Tesla ion cyclotron resonance Fourier transform instrument (LTQ-FT, Thermo Electron, San Jose, Calif.). We employed a top-seven method, whereby we collected 7 data-dependent MS/MS scans in the linear ion trap based on measurements made during the previous MS survey scan in the ICR cell, with the linear ion trap and the Fourier transform instrument operating concurrently. We performed MS scans at 375-1800 m/z with an automatic gain control (AGC) target of 3×10^6 and a mass resolution of 10^5. For MS/MS the AGC was 4000, the dynamic exclusion time was 25 s, and singly-charged ions were rejected by charge-state screening.
# We assigned peptide sequences to MS/MS spectra using Sequest software (v.27, rev.12) and a composite forward/reverse IPI human protein database. Search parameters were: trypsin as protease; 1.08 Da precursor mass tolerance; static modification on cysteine (+57.02146, carboxamidomethylation); and dynamic modifications on serine, threonine and tyrosine (+79.96633 Da, phosphorylation), lysine (+8.01420, ^13C6 ^15N2), arginine (+6.02013, ^13C6) and methionine (+15.99491, oxidation). We used a target/decoy database approach to establish appropriate score-filtering criteria such that the estimated false-positive assignment rate was <1%. In addition to exceeding charge-dependent XCorr thresholds (for z=2, XCorr≧2.2; for z=3, XCorr≧3.3; for z=4, XCorr≧3.5), we required assignments to contain phosphotyrosine, to have a mass accuracy of −5 to +25 ppm, and to contain either all-light or all-heavy lysine/arginine residues. We further evaluated assignments passing these criteria using a custom quantification program Vista (Bakalarski, C. E., Elias, J. E., Villen, J. Haas, W., Gerber, S. A., Everley, P. A., and Gygi, S. P. (2008) The Impact of Peptide Abundance and Dynamic Range on Stable-Isotope-Based Quantitative Proteomic Analyses. J. Proteome Res. 10.1021/pr800333e) to calculate peak areas and ultimately a relative abundance between heavy and light forms of each peptide.
# [2] = 100 nM Imatinib, 1 hour (FIG. 9B)
# [3] = indicated amounts of Imatinib mesylate, 1 hour (FIG. 9B)
# T1 sequence (P16234 24-1089): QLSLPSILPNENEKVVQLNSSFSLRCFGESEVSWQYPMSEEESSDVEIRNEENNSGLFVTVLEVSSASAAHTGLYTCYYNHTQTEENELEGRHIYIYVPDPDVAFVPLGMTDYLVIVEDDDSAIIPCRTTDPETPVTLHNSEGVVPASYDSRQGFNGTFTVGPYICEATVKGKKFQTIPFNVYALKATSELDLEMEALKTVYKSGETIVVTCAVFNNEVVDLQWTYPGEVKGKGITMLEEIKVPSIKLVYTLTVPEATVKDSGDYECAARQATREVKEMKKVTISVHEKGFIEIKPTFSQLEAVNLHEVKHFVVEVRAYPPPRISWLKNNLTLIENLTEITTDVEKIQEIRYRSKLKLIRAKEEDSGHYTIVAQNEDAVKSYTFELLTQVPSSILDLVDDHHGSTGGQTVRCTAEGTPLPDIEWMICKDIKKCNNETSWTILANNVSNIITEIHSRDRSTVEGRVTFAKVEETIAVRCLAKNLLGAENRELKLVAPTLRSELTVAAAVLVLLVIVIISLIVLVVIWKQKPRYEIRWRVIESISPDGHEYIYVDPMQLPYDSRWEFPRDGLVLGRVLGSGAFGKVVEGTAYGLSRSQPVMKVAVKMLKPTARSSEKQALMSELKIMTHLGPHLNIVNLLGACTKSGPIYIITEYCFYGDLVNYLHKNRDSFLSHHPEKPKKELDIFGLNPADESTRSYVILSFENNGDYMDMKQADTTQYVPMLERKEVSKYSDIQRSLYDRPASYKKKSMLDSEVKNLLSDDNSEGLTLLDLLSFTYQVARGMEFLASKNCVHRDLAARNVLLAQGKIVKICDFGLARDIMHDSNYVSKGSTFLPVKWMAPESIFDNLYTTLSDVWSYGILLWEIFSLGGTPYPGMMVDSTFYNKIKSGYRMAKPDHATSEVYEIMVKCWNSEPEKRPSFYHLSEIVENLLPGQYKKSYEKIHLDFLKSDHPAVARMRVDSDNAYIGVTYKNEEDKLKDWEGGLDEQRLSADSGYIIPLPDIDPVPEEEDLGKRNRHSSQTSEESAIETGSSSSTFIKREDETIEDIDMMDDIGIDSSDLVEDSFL
smiles,measurement,setting,value
Cc1ccc(NC(=O)c2ccc(CN3CCN(C)CC3)cc2)cc1Nc1nccc(-c2cccnc2)n1 [Imatinib],tumor growth,"H1703 xenograft; H1703 xenograft in nude mice, 50 mg/kg daily, 2 week period, vs vehicle",immediate and profound effects on tumor growth
same,tumor growth,"H1703 xenograft; H1703 xenograft, after 7 days of Imatinib treatment at 50 mg/kg (FIG. 9F)",blocks tumor growth
same,Akt phosphorylation,Akt (Ser473); [2],almost complete inhibition
same,Akt phosphorylation (Ser473),Akt (Ser473); [3],dose-dependent inhibition
same,phosphorylation of Akt at Ser473,Akt (Ser473),blocked
same,phosphorylation of Stat3,Stat3,not changed
same,PDGFRα phosphorylation,PDGFRα; [2],almost complete inhibition
same,phosphorylation of PDGFRα,"PDGFRα; 1 μM for 3 hours, western (FIG. 9E)",decreased phosphorylation
same,PDGFR α phosphorylation (Tyr754),PDGFRα; [3],dose-dependent inhibition
same,sensitivity to Imatinib,A549 cells,showed sensitivity
same,p44/42MAPK phosphorylation,p44/42MAPK,little if any effect
same,phosphorylation of SHP2,SHP2,decreased phosphorylation
same,cell growth / sensitivity to Imatinib,H1703 cells,sensitivity profile similar to K562 cells
same,cell growth / sensitivity to Imatinib,H1703 cells; listed as Imatinib mesylate,inhibits cell growth
same,phosphorylation of PLCγ1,PLCγ1,decreased phosphorylation
same,phosphorylation of SMS2,[1],inhibited phosphorylation
same,phosphorylation of the ras effector Rinl,[1],inhibited phosphorylation
same,tyrosine phosphorylation of SHP-2,[1],suppressed tyrosine phosphorylation
same,tyrosine phosphorylation of Stat5,[1],suppressed tyrosine phosphorylation
same,tyrosine phosphorylation of phospholipase Cg 1,[1],suppressed tyrosine phosphorylation
same,tyrosine phosphorylation of proteins regulating the cytoskeleton and actin reorganization and signaling molecules involved in membrane recycling and endocytosis,[1],suppressed
same,tyrosine phosphorylation of the regulatory subunit of PI3K,[1],suppressed tyrosine phosphorylation
COc1cc2ncnc(Nc3ccc(F)c(Cl)c3)c2cc1OCCCN1CCOCC1 [Gefitinib],phosphorylation of Akt at Ser473,Akt (Ser473),not by Gefitinib
